The target of this experiment is T1, Human AMPK α2β2γ1 (Homo sapiens, UniProt O43741+P54646).
T1 construct: The full length cDNAs of human AMPK β2 (NM_005399.3) and human AMPK α2 (NM_006252.3); The full length cDNAs of human AMPK β2 (NM_005399.3); the full length cDNA of human AMPK γ1 (NM_002733.3) had been inserted into pET28b(+); 6×His (N); made in house; host or cells: Escherichia coli BL21 CodonPlus (DE3)-RIL
In words: Test Example 2: activation of phosphorylated human AMPK α2β2γ1 (mobility-shift kinase assay, FL-Peptide 7). Type of experiment: biochemical. To be noted: for EC150: compound concentration showing 150% relative to the control (100%), human AMPK α2β2γ1 phosphorylated with CaMKK2; for Emax: maximum rate of increase in activity within the measurement range, control = 100%. As to the method:
The full length cDNAs of human AMPK β2 (NM_005399.3) and human AMPK α2 (NM_006252.3) were inserted into the MCS1 and MCS2 of the pETDuet-1 vector to prepare a human AMPK β2 and human AMPK α2 (6×His tag at the 5′ terminus) expressing plasmid. The plasmid was cotransfected with an expression plasmid, in which the full length cDNA of human AMPK γ1 (NM_002733.3) had been inserted into pET28b(+), into BL21 CodonPlus (DE3)-RIL to obtain an expression strain. The expression strain was cultured in TB medium, followed by induction with 0.5 mM IPTG, and cultured at 25° C. for 3 hours and then harvested. After ultrasonication, supernatant was collected and applied to Histrap FF column (GE) and RESOUECE Q column (GE) to prepare 12.5 mg of purified sample containing three types of subunit from 1.8 L of broth.
An expression vector, in which the full length cDNA of human CAMKK β (NM_172226.1) had been inserted into pGEX-6P-3, was transfected into BL21 Star (DE3). The expression strain was cultured in TB medium, followed by induction with 0.5 mM IPTG, and cultured at 25° C. for 3 hours and then harvested. After ultrasonication, supernatant was collected and applied to GSTrap FF column (GE) to prepare 14 mg of GST-fused CAMKK β from 720 ml of broth.
Thus, phosphorylation treatment was carried out as pretreatment.
Human AMPK α2β2γ1 in an amount to give a conversion rate of approximately 10% by reaction for 2 hours, and CaMKK2 in an amount capable of sufficiently imparting activity to AMPK for one hour were mixed in a buffer solution consisting of a 50 mM HEPES-NaOH buffer solution (pH 7.0), 100 mM NaCl, 5 mM magnesium chloride, 0.1% bovine serum albumin, 0.2 mM sodium orthovanadate(V), 1 mM ethylene glycol-bis(2-aminoethyl ether)-N,N,N′,N′-tetraacetic acid (EGTA), 5 mM disodium β-glycerophosphate, 1 mM dithiothreitol and 0.2 mM ATP, and the resulting liquid was left to stand at 25° C. for 1 to 1.5 hours to sufficiently phosphorylate AMPK.
After that, to the enzyme liquid, which had been subjected to phosphorylation treatment, a compound dissolved in DMSO was added so as to have a 1% DMSO concentration. The resulting liquid was left to stand for 10 minutes.
To the liquid, a substrate solution consisting of a 50 mM HEPES-NaOH buffer solution (pH 7.0), 100 mM NaCl, 10 mM magnesium chloride, 0.1% bovine serum albumin, 0.2 mM sodium orthovanadate(V), 1 mM ethylene glycol-bis(2-aminoethyl ether)-N,N,N′,N′-tetraacetic acid (EGTA), 5 mM disodium β-glycerophosphate, 2 mM dithiothreitol, 0.4 mM ATP and 3 μM FL-Peptide 7 (manufactured by Caliper Life Sciences, Inc.) was added in equal amount (10 μl in total). The resulting liquid was allowed to react at 25° C. for 2 hours, then 10 μl of 20 mM EDTA was added thereto to stop the reaction.
To detect phosphorylated fluorescent substrates, the reaction mixture was applied to a measuring device, LabChip EZ Reader II manufactured by Caliper Life Science, Inc., for detecting fluorescence by using differences in mobility due to differences in charge. The setting conditions for the device were pressure, −1.5 PSI; upstream voltage, −2250 V; downstream voltage, −400 V; post sample buffer sip time, 40 seconds; final delay, 120 seconds; and peak order, Product First.
A conversion rate was calculated from the peak heights of the obtained substrate and product. The conversion rate when not containing a compound was used as a control, and a concentration dependent curve was made by plotting the rate of increase in activity to the control at each concentration of a compound.

Values joined by “and” are separate entries in the source; they are usually repeats but may differ in a detail not shown here. Equal values may be shown once. Read-outs that look alike come from different tables or passages of the source.

T1 sequence (P54646 whole entry): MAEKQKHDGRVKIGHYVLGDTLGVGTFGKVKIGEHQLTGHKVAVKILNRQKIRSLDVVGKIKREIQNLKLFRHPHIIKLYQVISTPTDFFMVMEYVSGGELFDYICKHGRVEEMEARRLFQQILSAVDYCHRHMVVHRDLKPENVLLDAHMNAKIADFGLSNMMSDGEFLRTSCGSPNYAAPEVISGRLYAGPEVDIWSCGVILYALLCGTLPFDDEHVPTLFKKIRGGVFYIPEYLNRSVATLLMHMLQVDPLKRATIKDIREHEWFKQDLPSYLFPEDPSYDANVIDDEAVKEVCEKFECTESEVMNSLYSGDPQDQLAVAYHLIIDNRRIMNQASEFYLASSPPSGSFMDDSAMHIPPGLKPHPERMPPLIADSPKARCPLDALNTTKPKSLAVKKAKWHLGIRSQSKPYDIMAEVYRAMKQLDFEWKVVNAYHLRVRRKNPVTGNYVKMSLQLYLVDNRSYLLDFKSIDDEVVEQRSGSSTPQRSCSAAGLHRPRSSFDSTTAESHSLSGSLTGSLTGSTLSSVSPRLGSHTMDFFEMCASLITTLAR
T1 sequence (O43741 whole entry): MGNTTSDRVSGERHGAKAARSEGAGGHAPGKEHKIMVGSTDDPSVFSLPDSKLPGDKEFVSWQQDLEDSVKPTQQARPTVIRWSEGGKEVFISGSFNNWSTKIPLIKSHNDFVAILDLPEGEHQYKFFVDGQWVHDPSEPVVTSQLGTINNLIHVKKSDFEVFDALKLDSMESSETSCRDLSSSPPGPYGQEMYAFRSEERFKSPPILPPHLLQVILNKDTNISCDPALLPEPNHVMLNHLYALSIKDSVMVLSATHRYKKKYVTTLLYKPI
T1 sequence (P54619 whole entry partner): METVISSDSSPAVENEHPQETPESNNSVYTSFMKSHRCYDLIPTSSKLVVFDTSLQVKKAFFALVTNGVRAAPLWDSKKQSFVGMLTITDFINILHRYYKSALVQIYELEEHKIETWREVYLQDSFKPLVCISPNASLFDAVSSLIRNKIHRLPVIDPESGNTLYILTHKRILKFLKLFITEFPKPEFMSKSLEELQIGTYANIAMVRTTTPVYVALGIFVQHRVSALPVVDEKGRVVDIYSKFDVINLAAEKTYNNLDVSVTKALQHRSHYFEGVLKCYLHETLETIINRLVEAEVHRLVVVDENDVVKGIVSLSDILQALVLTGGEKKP

For `CN(C)S(=N)(=O)c1ccc(-c2ccc(-c3nc4cc(O[C@@H]5CO[C@H]6[C@@H]5OC[C@H]6O)[nH]c4cc3F)cc2)cc1` (some centres unmarked) [Compound I-2-11], the EC150 amounted to 2.1 nM. Further, the Emax (read-out: Emax) was found to be 408%.
The like results for `CNS(=O)(=O)c1ccc(-c2ccc(-c3nc4cc(O[C@@H]5CO[C@H]6[C@@H]5OC[C@H]6O)[nH]c4cc3F)cc2)nc1` [Compound I-1-32] were, in that order, 8 nM and 456%.
The like results for `CS(C)(=O)=Nc1ccc(-c2ccc(-c3nc4cc(O[C@H]5CCOC5)[nH]c4cc3Cl)cc2)cc1` [Compound I-1-01] were, in that order, 24 nM and 282%.
On to `COCCN(C)C(=O)c1ccc(-c2ccc(-c3nc4cc(O[C@@H]5CO[C@H](CO)C5)[nH]c4cc3F)cc2)cc1` [Compound I-2-83], for which the EC150 is 0.73 nM. Under “read-out: Emax”, the Emax was found to be 581%.
The like results for `CC(=O)N[C@H]1CC[C@H](c2ccc(-c3nc4cc(O[C@@H]5CO[C@H]6[C@@H]5OC[C@H]6O)[nH]c4cc3F)cc2)CC1` [Compound I-1-41] were, in that order, 7.8 nM and 562%.
Consider `O[C@@H]1CO[C@H]2[C@@H]1OC[C@H]2Oc1cc2nc(-c3ccc(-c4ccc(OCCC(F)F)cc4)cc3)c(F)cc2[nH]1` [Compound I-2-63], for which the EC150 was found to be 21 nM. In addition, the Emax (read-out: Emax) was determined as 520%.
On to `CCC(=O)NC1CCN(c2ccc(-c3nc4cc(O[C@@H]5CO[C@H]6[C@@H]5OC[C@H]6O)[nH]c4cc3F)cc2)CC1` [Compound I-1-12], for which the Emax was 497% and 523%.
`CC(C)(C)P(=O)(c1ccc(-c2ccc(-c3nc4cc(O[C@@H]5CO[C@H]6[C@@H]5OC[C@H]6O)[nH]c4cc3F)cc2)cc1)C(C)(C)C` [Compound I-2-67]: the EC150 is 22 nM. In addition, the Emax (read-out: Emax) is 555%.
The like results for `CS(C)(=O)=Nc1ccc(-c2ccc(-c3nc4cc(O[C@H]5CO[C@H](CO)[C@@H](O)C5)[nH]c4cc3F)cc2)cc1` [Compound I-1-04] were, in that order, 6.2 nM and 332%.
For `O[C@@H]1CO[C@H]2[C@@H]1OC[C@H]2Oc1cc2nc(-c3ccc([C@@H]4CCCC[C@H]4O)cc3)c(F)cc2[nH]1` [Compound I-2-17], the EC150 came to 15 nM. Further, under “read-out: Emax”, the Emax came to 600%.
The like results for `O[C@@H]1CO[C@H]2[C@@H]1OC[C@H]2Oc1cc2nc(-c3ccc(-c4ccc(OC5CCNCC5)cc4)cc3)c(F)cc2[nH]1` [Compound I-2-60] were, in that order, 2 nM and 564%.
Take `COCCOc1ccc(-c2ccc(-c3nc4cc(O[C@@H]5CO[C@H](CO)C5)[nH]c4cc3F)cc2)cc1` [Compound I-2-02]: where the note is “read-out: Emax”, the Emax was 537%.
As to `CNC(=O)COc1ccc(-c2ccc(-c3nc4cc(O[C@@H]5CO[C@H]6[C@@H]5OC[C@H]6O)[nH]c4cc3F)cc2)cc1` [Compound I-2-47], the EC150 worked out at 2.2 nM. Also, the Emax (read-out: Emax) is 635%.
The like results for `COC(=O)NC1CC=C(c2ccc(-c3nc4cc(O[C@@H]5CO[C@H]6[C@@H]5OC[C@H]6O)[nH]c4cc3F)cc2)CC1` (some centres unmarked) [Compound I-1-22] were, in that order, 3.8 nM and 422%.
The like results for `COCCN(C)c1ccc(-c2ccc(-c3nc4cc(O[C@@H]5CO[C@H]6[C@@H]5OC[C@H]6O)[nH]c4cc3F)cc2)cc1` [Compound I-2-12] were, in that order, 6.9 nM and 367%.
As to `COC(=O)NC1CC=C(c2ccc(-c3nc4cc(O[C@@H]5CO[C@H]6[C@@H]5OC[C@H]6O)[nH]c4cc3F)cc2)CC1` (some centres unmarked) [Compound I-1-23], the EC150 stood at 2.9 nM and the Emax is 436%.
In the case of `CN(C)C(=O)OC1CCN(c2ccc(-c3nc4cc(O[C@@H]5CO[C@H]6[C@@H]5OC[C@H]6O)[nH]c4cc3F)cc2)CC1` [Compound I-1-50], the EC150 is listed as 23 nM. For the same compound, the Emax (read-out: Emax) stood at 539%.

Usually Emax stands for the maximal effect, on the per cent scale that the assay sets.

The record behind these values is patent US10478425B2, “5-phenylazaindole derivative having AMPK-activating activity” (Shionogi & Co., Ltd., priority 2016, dated 2019).
